Data as given in US12209252B2, “Transduction buffer” (Koninklijke Nederlandse Akademie van Wetenschappen, priority 2015, dated 2025).

How the values were obtained:
[1] = test system: KBM7 cells carrying an out-of-frame tdTomato reporter; test: Effect of carbohydrate supplements on Cas9/sgRNA transduction (tdTomato reporter); type: cell-based; conditions: carbohydrate 0.8% w/v, 40 minutes, 327 mM NaCl, 200 mM GABA, read two days after
Protocol: (§1) KBM7 cells carrying an out-of-frame tdTomato reporter were transduced for 40 minutes with recombinant Cas9 protein and sgRNA targeting the out-of-frame region in the tdTomato reporter. Transductions were carried out in 1× iTOP transduction buffer, supplemented with 327 mM NaCl and 200 mM GABA. Indicated carbohydrates were added at 0.8% w/v final concentration. Two days after transduction, tdTomato fluorescence was determined by flow cytometry analysis.
as §1, with “The effect of various carbohydrates on transduction efficiency was tested in the iTOP buffer. KBM7” for “KBM7”, “carbohydrates (sorbitol, lactulose, sucrose, trehalose and myo-inositol)” for “carbohydrates”, “analysis. Higher levels of tdTomato fluorescence were indicative of greater transduction efficiency.” for “analysis.”

[2] = 700 mOsm/Kg, non-salt compound alone; previously tested (WO2015/028969); cited from earlier work
[3] = test system: sodium-hydrogen antiporter (Nhe) proteins; test: Inhibition of protein transduction by Na+/H+ exchange inhibitors; type: cell-based
Source text: Without wishing to be bound by theory, the inventors hypothesise that activation of such Nhe transporters leads to activation of the macropinocytosis pathway, which is the first step in the transduction process. Thus, in some embodiments, the salt is any salt able to bind to and/or activate a sodium/hydrogen (Na+/H+) transporter, such as an Nhe transporter, for example an Nhe1 transporter. Nhe1 is a ubiquitous membrane-bound enzyme involved in volume- and pH-regulation of vertebrate cells.

[4] = test system: MEFs; test: BrdU incorporation 24 hrs after beta-lactamase transduction; type: cell-based, mouse; conditions: see FIGS. 6A-6D
Protocol: Third column: Relative β-lactamase protein transduction activity; Fourth column: Relative BrdU incorporation 24 hrs after β-lactamase transduction. MEFs were transduced for 3 hours with 1 μM β-lactamase protein at a NaCl adjusted osmolality of 700 mOsm/Kg in transduction buffer containing 30 mM of Glycerol and 15 mM of Glycine and 25 mM of the indicated transduction compounds. β-lactamase incorporation of the reference compound (NDSB201, #01) was set at 100%. Open circles indicate relative BrdU incorporation by the transduced cells. BrdU incorporation of untransduced cells was set at 100% and BrdU incorporation of mitomycin C-treated cells was set at 0%.

| SMILES | transduction efficiency (tdTomato fluorescence, in words) [1] | induction of protein transduction [2] | further results |
| --- | --- | --- | --- |
| O[C@H]1[C@H](O)[C@@H](O)[C@H](O)[C@@H](O)[C@H]1O [myo-inositol] | closely followed |  |  |
| OC[C@@H](O)[C@@H](O)[C@H](O)[C@H](O)CO [mannitol] |  | failed to induce protein transduction |  |
| CCN(c1nc(N)c(C(=O)NC(=N)N)nc1Cl)C(C)C [EIPA] |  |  | inhibition of protein transduction [3]: strongly inhibited |
| OC[C@H]1O[C@@H](O[C@@H]2[C@@H](CO)OC(O)(CO)[C@H]2O)[C@H](O)[C@@H](O)[C@H]1O (mixture of isomers) [lactulose] | closely followed | failed to induce protein transduction |  |
| NCCCC(=O)O [#20] |  |  | cell viability / proliferation / survival (in words) [4]: particularly good cell survival rates |
| CN(C)c1nc(N)c(C(=O)N=C(N)N)nc1Cl [DMA] |  |  | inhibition of protein transduction [3]: strongly inhibited |
| OC[C@H]1O[C@H](O[C@H]2O[C@H](CO)[C@@H](O)[C@H](O)[C@H]2O)[C@H](O)[C@@H](O)[C@@H]1O [trehalose] | greatest improvement |  |  |
| OC[C@@H](O)[C@@H](O)[C@H](O)[C@@H](O)CO [sorbitol] | greatest improvement | failed to induce protein transduction |  |
| OC[C@H]1O[C@@](CO)(O[C@H]2O[C@H](CO)[C@@H](O)[C@H](O)[C@H]2O)[C@@H](O)[C@@H]1O [sucrose] | improve transduction efficiency | failed to induce protein transduction |  |
